Species on record: Rattus norvegicus
Experiment: Open TG-GATES - Regimen: Single
Assay type: toxicity, organism-based, Sprague-Dawley
Set-up: regimen Single, gender Male, age 6 weeks
Conditions: in vivo, po, 0 mg/kg, route gavage, dose level Control; for KIDNEY_L / KIDNEY_R / KIDNEY_TOTAL: tissue Kidney; for LIVER: tissue Liver; for ALP / ALT / AST / BUN / CRE / Ca / DBIL / GLC / IP / K / LDH / Na / PL / RALB / TBIL / TC / TP / gamma-GTP / TG: tissue Plasma

O=C(O)c1cn(C2CC2)c2cc(N3CCNCC3)c(F)cc2c1=O [CIPROFLOXACIN]
TERMINAL_BW (3 h): 180.9 g
Bas (3 h, tissue Blood): 0%
Eos (3 h, tissue Blood): 0.6%
Fbg (3 h, tissue Blood): 202.2 mg/dL
Hb (3 h, tissue Blood): 13 g/dL
MCH (3 h, tissue Blood): 21.8 pg
MCV (3 h, tissue Blood): 65.5 fL
Mono (3 h, tissue Blood): 6%
PT (3 h, tissue Blood): 12.5 s
Plat (3 h, tissue Blood): 103.5 x10_4/uL
RBC (3 h, tissue Blood): 598.8 x10_4/ul
Ret (3 h, tissue Blood): 9.9%
WBC (3 h, tissue Blood): 128.2 x10_2/uL
KIDNEY_L (3 h): 0.8 g
KIDNEY_R (3 h): 0.9 g
KIDNEY_TOTAL (3 h): 1.7 g
LIVER (3 h): 8.3 g
ALP (3 h): 1050.6 IU/L
ALT (3 h): 38.4 IU/L
AST (3 h): 70.6 IU/L
BUN (3 h): 13.8 mg/dL
CRE (3 h): 0.4 mg/dL
Ca (3 h): 10.8 mg/dL
DBIL (3 h): 0.008 mg/dL
GLC (3 h): 186.6 mg/dL
IP (3 h): 9.5 mg/dL
K (3 h): 4.9 meq/L
LDH (3 h): 92.6 IU/L
Na (3 h): 138.2 meq/L
PL (3 h): 130.8 mg/dL
RALB (3 h): 3.8 g/dL
TBIL (3 h): 0.4 mg/dL
TC (3 h): 73.6 mg/dL
TP (3 h): 5.4 g/dL
gamma-GTP (3 h): 1.8 IU/L
TERMINAL_BW (6 h): 182.4 g
Bas (6 h, tissue Blood): 0%
Eos (6 h, tissue Blood): 0.6%
Fbg (6 h, tissue Blood): 211 mg/dL
Hb (6 h, tissue Blood): 12.6 g/dL
Lym (6 h, tissue Blood): 77%
MCH (6 h, tissue Blood): 21.8 pg
MCV (6 h, tissue Blood): 66.3 fL
Mono (6 h, tissue Blood): 6.8%
Neu (6 h, tissue Blood): 15.6%
PT (6 h, tissue Blood): 12.5 s
Plat (6 h, tissue Blood): 103 x10_4/uL
RBC (6 h, tissue Blood): 579 x10_4/ul
Ret (6 h, tissue Blood): 10.8%
WBC (6 h, tissue Blood): 125 x10_2/uL
KIDNEY_L (6 h): 0.9 g
KIDNEY_R (6 h): 0.9 g
KIDNEY_TOTAL (6 h): 1.8 g
LIVER (6 h): 8.5 g
ALP (6 h): 839.4 IU/L
ALT (6 h): 36.6 IU/L
BUN (6 h): 10.4 mg/dL
CRE (6 h): 0.5 mg/dL
DBIL (6 h): 0.024 mg/dL
GLC (6 h): 186.4 mg/dL
IP (6 h): 9.9 mg/dL
K (6 h): 5.1 meq/L
LDH (6 h): 103.2 IU/L
Na (6 h): 138.2 meq/L
PL (6 h): 136 mg/dL
RALB (6 h): 3.7 g/dL
TBIL (6 h): 0.4 mg/dL
TC (6 h): 80.6 mg/dL
TG (6 h): 42.2 mg/dL
TP (6 h): 5.5 g/dL
gamma-GTP (6 h): 1.4 IU/L
TERMINAL_BW (9 h): 177.8 g
APTT (9 h, tissue Blood): 17 s
Bas (9 h, tissue Blood): 0%
Eos (9 h, tissue Blood): 0.4%
Fbg (9 h, tissue Blood): 213.4 mg/dL
Hb (9 h, tissue Blood): 12.4 g/dL
Ht (9 h, tissue Blood): 37.5%
Lym (9 h, tissue Blood): 82.6%
MCH (9 h, tissue Blood): 21.7 pg
MCHC (9 h, tissue Blood): 33.1%
MCV (9 h, tissue Blood): 65.6 fL
Mono (9 h, tissue Blood): 6.8%
Neu (9 h, tissue Blood): 10%
PT (9 h, tissue Blood): 11.7 s
Plat (9 h, tissue Blood): 116.2 x10_4/uL
RBC (9 h, tissue Blood): 572.4 x10_4/ul
Ret (9 h, tissue Blood): 10.6%
WBC (9 h, tissue Blood): 115.5 x10_2/uL
KIDNEY_L (9 h): 0.8 g
KIDNEY_R (9 h): 0.8 g
KIDNEY_TOTAL (9 h): 1.7 g
LIVER (9 h): 7.5 g
ALP (9 h): 766 IU/L
ALT (9 h): 32.4 IU/L
AST (9 h): 68.4 IU/L
BUN (9 h): 10.6 mg/dL
CRE (9 h): 0.5 mg/dL
Ca (9 h): 10.9 mg/dL
DBIL (9 h): 0.056 mg/dL
GLC (9 h): 193 mg/dL
IP (9 h): 10.9 mg/dL
K (9 h): 4.9 meq/L
LDH (9 h): 92.4 IU/L
Na (9 h): 139.2 meq/L
PL (9 h): 120.4 mg/dL
RALB (9 h): 3.8 g/dL
TBIL (9 h): 0.3 mg/dL
TC (9 h): 71.8 mg/dL
TG (9 h): 29 mg/dL
TP (9 h): 5.5 g/dL
gamma-GTP (9 h): 1.4 IU/L
TERMINAL_BW (24 h): 194.5 g
APTT (24 h, tissue Blood): 16.4 s
Bas (24 h, tissue Blood): 0%
Eos (24 h, tissue Blood): 1%
Fbg (24 h, tissue Blood): 209.2 mg/dL
Hb (24 h, tissue Blood): 13.1 g/dL
Lym (24 h, tissue Blood): 80%
MCH (24 h, tissue Blood): 22 pg
MCHC (24 h, tissue Blood): 33.4%
MCV (24 h, tissue Blood): 65.8 fL
Mono (24 h, tissue Blood): 7.2%
Plat (24 h, tissue Blood): 103.8 x10_4/uL
RBC (24 h, tissue Blood): 598.2 x10_4/ul
Ret (24 h, tissue Blood): 9.7%
WBC (24 h, tissue Blood): 132.8 x10_2/uL
KIDNEY_L (24 h): 0.9 g
KIDNEY_R (24 h): 0.9 g
KIDNEY_TOTAL (24 h): 1.8 g
LIVER (24 h): 9.8 g
ALP (24 h): 1038.8 IU/L
ALT (24 h): 47 IU/L
AST (24 h): 74.8 IU/L
BUN (24 h): 17.4 mg/dL
CRE (24 h): 0.5 mg/dL
Ca (24 h): 11.3 mg/dL
DBIL (24 h): 0.074 mg/dL
GLC (24 h): 187.2 mg/dL
IP (24 h): 8.3 mg/dL
K (24 h): 4.7 meq/L
LDH (24 h): 96.8 IU/L
Na (24 h): 138.8 meq/L
PL (24 h): 157.2 mg/dL
RALB (24 h): 4 g/dL
TBIL (24 h): 0.3 mg/dL
TC (24 h): 89 mg/dL
TG (24 h): 89.4 mg/dL
TP (24 h): 5.7 g/dL
gamma-GTP (24 h): 1.2 IU/L

From ChEMBL document CHEMBL3885861, “Open TG-GATES”
